Measured values: patent US12054509B2, “Antimicrobial compounds, compositions, and uses thereof” (Lakewood Amedex, Inc., priority 2017, dated 2024)
In brackets after ≈: the same amount, converted by molar mass.

What was measured:
Format in all cases: cell-based
[1] = tested on: E. coli ATCC 25922; experiment: Bacterial cytological profiling (Example 6), E. coli;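 as to cell wall deformations: tested at 1 0.5 and 0.25 times MIC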;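 as to effect on cell envelope: tested at 1 0.5 and 0.25 times MIC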
Experimental: (§1) This bacterial cytological profiling (BCP) study uses methods and materials described previously by Nonejuie, P., Burkart, M., Poglianoa, K., Pogiano, J. (2013). Bacterial cytological profiling rapidly identifies the cellular pathways targeted by antibacterial molecules. Proc. Natl. Acad. Sci. U.S.A. 110(40):16169-16174. doi: 10.1073/pnas.1311066110.
(§2) Wild type strains of E. coli ATCC 25922 or P. aeruginosa K2732 are grown in rich media (unbuffered 2× Lysogeny broth [LB]) at 30 C to an OD600˜0.4. These cultures are then split and each sample treated with the appropriate concentration of Nu-8 in unbuffered or buffered LB (final mixture OD600˜0.1). Cells exposed without Nu-8 are buffered to pH 4 with phosphoric acid.
(§3) The BCP is performed in LB media buffered to pH 4. The minimum inhibitory concentration (MIC) is measured for Nu-3, Nu-4, Nu-5, and Nu-8 against each bacterial strain. As one of ordinary skill in the art understands, minimum inhibitory concentrations are the lowest concentration of an antimicrobial that will inhibit the visible growth of a microorganism after overnight incubation. […] Cellular viability is assayed at three time points (5 minutes and 4 and 24 h following the onset of treatment).
(§4) For imaging E. coli, treated cells are stained with 1 μg/Ml FM4-64, 2 μg/mL DAPI, and 0.5 μM SYTOXGreen (Molecular Probes/Invitrogen). P. aeruginosa samples are stained 0.5 μM SYTOX Green, 28 μg/mL DAPI, and 4.5 μg/mL FM 4-64. Cells are transferred to an agarose pad (20% LB, 1% agarose) for imaging as described in Pogliano, J., Osborne, N., Sharp, M. D., Abanes-De Mello, A., Perez, A., Sun, Y.-L. and Pogliano, K. (1999), A vital stain for studying membrane dynamics in bacteria: a novel mechanism controlling septation during Bacillus subtilis sporulation. Molecular Microbiology, 31: 1149-1159. doi:10.1046/j.1365-2958.1999.01255.x.

[2] = tested on: P. aeruginosa K2732; experiment: Bacterial cytological profiling (Example 6), P. aeruginosa; settings: BCP;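 also: tested at 1 0.5 and 0.25 times MIC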
Experimental: as §1, §2, §3, §4

[3] = tested on: wild type E. coli (ATCC 25922); experiment: Bacterial cytological profiling at pH 4, 5.5, 7 (Example 8), E. coli
Experimental: (§5) This bacterial cytological profiling (BCP) investigation uses methods and materials described previously by Nonejuie, P., Burkart, M., Poglianoa, K., Pogiano, J. (2013). Bacterial cytological profiling rapidly identifies the cellular pathways targeted by antibacterial molecules. Proc. Natl. Acad. Sci. U.S.A. 110(40):16169-16174. doi: 10.1073/pnas.1311066110.
(§6) For viable cell counts, cells are grown to OD600≈0.4 and diluted 1:1 into buffered or unbuffered media containing various compound concentrations. Samples are then collected and serially diluted (1:10) on a 96 well plate. Five microliters from each well are spotted on LB plates, incubated at 30° C., and viable cells are counted the next day.
(§7) Samples are collected at 10, 30, 120, and 240 min of exposure for viable cell count and imaging. For imaging, E. coli and S. aureus 200 μL of treated cells per time point are stained with 0.8 μg/mL FM4-64, 1.5 μg/mL DAPI, and 0.4 μM SYTOXGreen (Molecular Probes/Invitrogen). P. aeruginosa samples are stained 0.4 μM SYTOX Green, 28 μg/mL DAN, and 1 μg/mL FM 4-64. Cells are transferred to an agarose pad (20% LB, 1% agarose) for imaging.
(§8) For Nu-3 and Nu-8 stocks (at pH 4, 5.5 and 7), stock concentration is 500 mg/mL. For pH 4, the stocks are prepared by dissolving Nu-3 in 25 mM citrate buffer and Nu-8 in 350 mM citric acid. For pH 5.5, the stocks are prepared by dissolving Nu-3 in 25 mM citric-phosphate and Nu-8 in 25 mM critic. For pH 7, the stocks are prepared by dissolving Nu-3 and Nu-8 in 25 mM Sorensen phosphate buffer. 2×LB (lysogeny broth) solutions are prepared with 50 mM citrate buffer for pH 4, 50 mM citrate-phosphate buffer for pH 5.5, and 50 mM Sorensen phosphate buffer for pH 7.

[4] = tested on: wild type P. aeruginosa (PAO1; K2732); experiment: Bacterial cytological profiling at pH 4, 5.5, 7 (Example 8), P. aeruginosa; settings: pH 5.5 and 7; 112.5 mg/mL
Experimental: as §5, §6, §7, §8

[5] = tested on: methicillin susceptible S. aureus (ATCC 29213); experiment: Bacterial cytological profiling at pH 4, 5.5, 7 (Example 8), S. aureus
Experimental: as §5, §6, §7, §8

[6] = tested on: Candida Albicans; experiment: MIC against a single isolate (Example 26); settings: single isolate, read-out: C. albicans MIC
Experimental: (§9) Bacterial strains evaluated in this study include Escherichia coli, Klebsiella spp, Serratia marcescens, Proteus mirabilis/vulgaris, Citrobacter spp, Providencia spp, Morganella morganii, Pseudomonas aeruginosa, Staphylococcus aureus (MRSA only), and Enterococcus faecalis. Nu-8 test solutions are adjusted to pH 3.5 with citric acid, and MIC is evaluated per the CLSI methods in Mueller-Hinton broth supplemented accordingly to facilitate growth of specific strains.
(§10) MIC was determined as per Example 9 using LAI-101, LAI-102, Nu-10, LAI-105, LAI-106, Nu-3, and Nu-8 against a single isolate of Escherichia coli. Pseudomonas aeruginosa, Staphylococcus aureus (MRSA only), and Candida Albicans. For all microbe species, the LAI-101, LAI-102, Nu-10, LAI-105, and LAI-106 all perform at least as well as, and in many experiments better than, Nu-8 and Nu-3, which are both already quite active compounds.

[7] = tested on: Escherichia coli; experiment: MIC against a single isolate (Example 26); settings: single isolate, read-out: E. coli MIC
Experimental: as §9, §10

[8] = tested on: Pseudomonas aeruginosa; experiment: MIC against a single isolate (Example 26); settings: single isolate, read-out: P. aeruginosa MIC
Experimental: as §9, §10

[9] = tested on: Staphylococcus aureus (MRSA only); experiment: MIC against a single isolate (Example 26); settings: single isolate, read-out: S. aureus MIC
Experimental: as §9, §10

[10] = tested on: E. coli (ATCC 25922); experiment: Time kill assay in saline at pH 3.5 (Example 27); settings: for Log10 CFU/mL: pH 3.5
Experimental: Log10 5 CFU of E. coli (ATCC 25922) were suspended in saline. Additionally, a sample of the saline only was prepared as a vehicle control (V.C.). Solutions of Nu-3, Nu-8, and Nu-10 at varying concentrations were adjusted to pH 3.5 with citric acid and added to the E. coli suspensions. At each time point (0, 1, 2.5, 5, 10, and 20 minutes), the treated bacterial suspensions were plated and incubated for 24 hrs, and each plate was read to determine the CFU count.
Tables 12-14 provide the time kill assay data for Nu-3 (Table 12), Nu-8 (Table 13) and Nu-10 (Table 14) against E. coli.

With `CCCCOP(=O)(O)OC[C@H]1O[C@@H](n2cc(C)c(=O)[nH]c2=O)C[C@@H]1OP(=O)(O)OCCCC` [Nu-3, reference compound] the “effect on cell envelope” value ([1]; BCP) was “affect the cell envelope”, the DNA condensation ([1]; higher treatment concentrations, buffered pH 4) was “causes DNA condensation” and the cell wall deformations ([1]; unbuffered LB) was “cause cell wall deformations”. The “effect on cell envelope” value [2] was “affect the cell envelope”, the “cell viability (cell growth delay)” value ([3]; pH 4, 112.5 mg/mL, up to 240 min) was 10^7 CFR/mL and the “effect on cell permeability, viability and growth” value ([3]; pH 5.5 and 7) was “ineffective”. For the same molecule, the cell growth [4] was “no effect on cell growth”, the “increase/change in cell permeability” value [4] was under 6% and the cell growth ([5]; pH 4, 125 mg/mL) was “slight reduction in cell growth”. The cell permeability ([5]; pH 4, 125 mg/mL) was under 10%, the cell permeability ([5]; pH 4, 250 mg/mL) was under 10% and the cell growth ([5]; pH 5.5 and 7, 125 mg/mL and 250 mg/mL, up to 24 h) was “slightly reduce cell growth”. The MIC [6] was 25 mg/mL (≈ 48.6 mM), the MIC [7] was 25 mg/mL (≈ 48.6 mM) and the MIC [8] was 25 mg/mL (≈ 48.6 mM). For the same molecule, the MIC [9] was over 50 mg/mL, the “Log10 CFU/mL” value ([10]; 2.5% solution, 0 min) was 5.20 Log10 CFU/mL and the “Log10 CFU/mL” value ([10]; 2.5% solution, 1 min) was 3.38 Log10 CFU/mL. For the same molecule, the “Log10 CFU/mL” value ([10]; 2.5% solution, 2.5 min) was 2.55 Log10 CFU/mL, the “Log10 CFU/mL” value ([10]; 2.5% solution, 5 min) was 1.99 Log10 CFU/mL and the “Log10 CFU/mL” value ([10]; 2.5% solution, 10 min) was 0.00 Log10 CFU/mL. The “Log10 CFU/mL” value ([10]; 2.5% solution, 20 min) was 0.00 Log10 CFU/mL, the “Log10 CFU/mL” value ([10]; 5% solution, 0 min) was 5.20 Log10 CFU/mL and the “Log10 CFU/mL” value ([10]; 5% solution, 1 min) was 3.00 Log10 CFU/mL. For the same molecule, the “Log10 CFU/mL” value ([10]; 5% solution, 2.5 min) was 2.10 Log10 CFU/mL, the “Log10 CFU/mL” value ([10]; 5% solution, 5 min) was 0.00 Log10 CFU/mL and the “Log10 CFU/mL” value ([10]; 5% solution, 10 min) was 0.00 Log10 CFU/mL. For the same molecule, the “Log10 CFU/mL” value ([10]; 5% solution, 20 min) was 0.00 Log10 CFU/mL, the “Log10 CFU/mL” value ([10]; 10% solution, 0 min) was 5.20 Log10 CFU/mL and the “Log10 CFU/mL” value ([10]; 10% solution, 1 min) was 2.85 Log10 CFU/mL. The “Log10 CFU/mL” value ([10]; 10% solution, 2.5 min) was 0.00 Log10 CFU/mL, the “Log10 CFU/mL” value ([10]; 10% solution, 5 min) was 0.00 Log10 CFU/mL and the “Log10 CFU/mL” value ([10]; 10% solution, 10 min) was 0.00 Log10 CFU/mL. For the same molecule, the “Log10 CFU/mL” value ([10]; 10% solution, 20 min) was 0.00 Log10 CFU/mL and the “time to complete kill of the bacteria” value ([10]; concentration of 10%) was at most 2.5 min.
